Source: ChEMBL document CHEMBL1141885, “N1-arylsulfonyl-3-(1,2,3,6-tetrahydropyridin-4-yl)-1H-indole derivatives are potent and selective 5-HT6 receptor antagonists” (Bioorg Med Chem Lett, 2005)

Columns and labels:
[1] = molecular target: T1, 5-hydroxytryptamine receptor 2C (Homo sapiens) (UniProt P28335); experiment: Inhibition of [3H]5-HT binding to human cloned 5-hydroxytryptamine 2C receptor stably expressed in CHO cells at 1 uM; assay type: cell-based
T1 sequence (whole entry): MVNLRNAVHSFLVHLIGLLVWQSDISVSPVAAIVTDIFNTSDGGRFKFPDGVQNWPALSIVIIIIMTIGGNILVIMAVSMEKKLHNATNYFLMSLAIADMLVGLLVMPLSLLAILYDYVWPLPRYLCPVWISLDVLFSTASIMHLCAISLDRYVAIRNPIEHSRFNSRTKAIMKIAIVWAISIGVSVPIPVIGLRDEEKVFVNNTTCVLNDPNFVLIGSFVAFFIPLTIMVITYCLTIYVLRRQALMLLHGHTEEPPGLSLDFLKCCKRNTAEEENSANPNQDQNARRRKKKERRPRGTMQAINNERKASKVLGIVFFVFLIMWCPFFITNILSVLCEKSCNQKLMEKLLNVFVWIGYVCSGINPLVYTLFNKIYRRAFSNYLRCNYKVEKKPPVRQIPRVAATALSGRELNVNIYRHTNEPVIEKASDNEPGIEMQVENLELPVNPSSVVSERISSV

[2] = molecular target: T2, 5-hydroxytryptamine receptor 6 (Homo sapiens, UniProt P50406); experiment: Binding affinity against cloned human 5-hydroxytryptamine 6 receptor expressed in HeLa cells using [3H]LSD; assay type: cell-based
[3] = molecular target: T3, 5-hydroxytryptamine receptor 1A (Homo sapiens, UniProt P08908); experiment: Binding affinity against human cloned 5-hydroxytryptamine 1A receptor stably expressed in CHO cells using DPAT
T3 sequence (P08908 whole entry): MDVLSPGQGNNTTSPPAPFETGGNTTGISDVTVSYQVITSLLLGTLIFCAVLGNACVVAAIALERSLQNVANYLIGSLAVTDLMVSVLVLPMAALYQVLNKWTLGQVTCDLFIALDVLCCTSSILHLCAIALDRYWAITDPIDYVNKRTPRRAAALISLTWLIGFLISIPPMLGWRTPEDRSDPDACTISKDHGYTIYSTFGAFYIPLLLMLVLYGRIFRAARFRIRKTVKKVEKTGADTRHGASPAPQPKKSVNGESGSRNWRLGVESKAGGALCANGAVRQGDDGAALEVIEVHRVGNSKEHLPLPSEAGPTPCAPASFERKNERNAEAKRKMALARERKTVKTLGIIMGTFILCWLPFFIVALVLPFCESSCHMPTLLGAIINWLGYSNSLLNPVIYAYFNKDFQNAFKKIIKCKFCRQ

[4] = molecular target: 5-hydroxytryptamine receptor 7 (Homo sapiens, UniProt P34969); experiment: Binding affinity against human cloned 5-hydroxytryptamine 7 receptor stably expressed in CHO cells using [3H]LSD; assay type: cell-based
[5] = molecular target: T4, 5-hydroxytryptamine receptor 1F (Homo sapiens) (UniProt P30939); experiment: Inhibition of [3H]-5-HT binding to human cloned 5-hydroxytryptamine 1F receptor stably expressed in CHO cells at 1 uM; assay type: cell-based
T4 sequence (whole entry): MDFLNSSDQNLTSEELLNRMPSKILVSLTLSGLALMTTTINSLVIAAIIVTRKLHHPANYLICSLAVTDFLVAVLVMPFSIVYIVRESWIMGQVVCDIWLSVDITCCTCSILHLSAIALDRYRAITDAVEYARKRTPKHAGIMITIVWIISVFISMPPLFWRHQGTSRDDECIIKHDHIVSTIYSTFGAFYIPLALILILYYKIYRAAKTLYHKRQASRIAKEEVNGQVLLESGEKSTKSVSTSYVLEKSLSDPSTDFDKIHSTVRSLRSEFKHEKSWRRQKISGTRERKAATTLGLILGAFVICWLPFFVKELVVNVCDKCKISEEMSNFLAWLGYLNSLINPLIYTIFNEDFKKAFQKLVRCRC

D(2) dopamine receptor [6] = molecular target: T5, D(2) dopamine receptor (Homo sapiens, UniProt P14416); experiment: Inhibition of [3H]spiperone binding to human cloned Dopamine receptor D2 stably expressed in CHO-K1 cells at 1 uM; assay type: cell-based
[7] = molecular target: 5-hydroxytryptamine receptor 1B (Homo sapiens) (UniProt P28222); experiment: Inhibition of [3H]-5-HT binding to human cloned 5-hydroxytryptamine 1B receptor stably expressed in CHO cells at 1 uM; assay type: cell-based
[8] = molecular target: 5-hydroxytryptamine receptor 2A (Homo sapiens, UniProt P28223); experiment: Inhibition of [125I]DOI binding to human cloned 5-hydroxytryptamine 2A receptor stably expressed in CHO cells at 1 uM; assay type: cell-based
[9] = molecular target: T2, 5-hydroxytryptamine receptor 6; experiment: Inhibitory concentration against 5-HT stimulated cAMP production in HeLa cells stably transfected with human 5-HT6 receptor; assay type: functional, cell-based
D(3) dopamine receptor [10] = molecular target: T6, D(3) dopamine receptor (Homo sapiens, UniProt P35462); experiment: Inhibition of [3H]spiperone binding to human cloned Dopamine receptor D3 stably expressed in CHO-K1 cells at 1 uM; assay type: cell-based
[11] = molecular target: 5-hydroxytryptamine receptor 1D (Homo sapiens) (UniProt P28221); experiment: Inhibition of [3H]5-HT binding to human cloned 5-hydroxytryptamine 1D receptor stably expressed in CHO cells at 1 uM; assay type: cell-based
[12] = molecular target: T7, D(4) dopamine receptor (Homo sapiens) (UniProt P21917); experiment: Inhibition of [3H]spiperone binding to human cloned Dopamine receptor D4 stably expressed in CHO-K1 cells at 1 uM; assay type: cell-based
T7 sequence (whole entry): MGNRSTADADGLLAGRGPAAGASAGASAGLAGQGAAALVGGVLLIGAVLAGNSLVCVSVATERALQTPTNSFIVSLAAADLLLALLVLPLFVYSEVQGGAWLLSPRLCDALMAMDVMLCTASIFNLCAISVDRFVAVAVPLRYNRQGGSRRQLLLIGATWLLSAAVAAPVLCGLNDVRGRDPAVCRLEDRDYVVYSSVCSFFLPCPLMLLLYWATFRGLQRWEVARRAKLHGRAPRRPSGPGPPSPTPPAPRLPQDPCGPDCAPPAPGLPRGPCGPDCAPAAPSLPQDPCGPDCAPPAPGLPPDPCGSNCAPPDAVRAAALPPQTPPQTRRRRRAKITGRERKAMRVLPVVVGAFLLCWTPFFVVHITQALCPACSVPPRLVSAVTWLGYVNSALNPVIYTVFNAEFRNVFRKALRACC

D(2) dopamine receptor [13] = molecular target: T5, D(2) dopamine receptor; experiment: Binding affinity against human cloned Dopamine receptor D2 stably expressed in CHO-K1 cells using [3H]spiperone; assay type: cell-based
D(4) dopamine receptor = molecular target: T8, D(4) dopamine receptor (Homo sapiens, UniProt P21917); experiment: Binding affinity against human cloned Dopamine receptor D4 stably expressed in CHO-K1 cells using [3H]spiperone; assay type: cell-based
T8 sequence (P21917 whole entry): T7 sequence (whole entry)

D(3) dopamine receptor [14] = molecular target: T6, D(3) dopamine receptor; experiment: Binding affinity against human cloned Dopamine receptor D3 stably expressed in CHO-K1 cells using [3H]spiperone; assay type: cell-based
[15] = molecular target: T2, 5-hydroxytryptamine receptor 6; experiment: Inhibition of [3H]LSD binding to cloned human 5-hydroxytryptamine 6 receptor expressed in HeLa cells at 1 uM; assay type: cell-based

Chain of 5-hydroxytryptamine receptor 1B (Homo sapiens) (P28222 whole entry): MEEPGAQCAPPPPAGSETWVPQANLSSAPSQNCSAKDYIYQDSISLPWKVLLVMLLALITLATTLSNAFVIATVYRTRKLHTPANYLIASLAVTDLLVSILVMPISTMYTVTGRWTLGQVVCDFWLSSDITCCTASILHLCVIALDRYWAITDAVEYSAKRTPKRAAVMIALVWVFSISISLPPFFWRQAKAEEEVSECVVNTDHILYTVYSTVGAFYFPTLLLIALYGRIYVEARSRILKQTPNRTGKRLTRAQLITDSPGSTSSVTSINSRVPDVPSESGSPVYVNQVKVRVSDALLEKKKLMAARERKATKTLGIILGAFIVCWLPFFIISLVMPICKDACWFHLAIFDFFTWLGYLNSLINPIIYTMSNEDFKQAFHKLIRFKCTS
Chain of 5-hydroxytryptamine receptor 1D (Homo sapiens) (P28221 whole entry): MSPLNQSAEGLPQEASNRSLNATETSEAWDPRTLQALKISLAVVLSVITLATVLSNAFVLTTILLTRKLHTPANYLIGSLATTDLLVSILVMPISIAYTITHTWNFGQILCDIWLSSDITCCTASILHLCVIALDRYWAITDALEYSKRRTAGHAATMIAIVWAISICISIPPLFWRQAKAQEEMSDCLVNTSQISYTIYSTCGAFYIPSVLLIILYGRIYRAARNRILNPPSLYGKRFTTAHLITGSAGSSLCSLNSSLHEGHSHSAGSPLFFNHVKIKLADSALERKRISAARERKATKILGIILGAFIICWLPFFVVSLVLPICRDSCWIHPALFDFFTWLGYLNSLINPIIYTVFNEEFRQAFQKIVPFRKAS
T2 sequence (P50406 whole entry): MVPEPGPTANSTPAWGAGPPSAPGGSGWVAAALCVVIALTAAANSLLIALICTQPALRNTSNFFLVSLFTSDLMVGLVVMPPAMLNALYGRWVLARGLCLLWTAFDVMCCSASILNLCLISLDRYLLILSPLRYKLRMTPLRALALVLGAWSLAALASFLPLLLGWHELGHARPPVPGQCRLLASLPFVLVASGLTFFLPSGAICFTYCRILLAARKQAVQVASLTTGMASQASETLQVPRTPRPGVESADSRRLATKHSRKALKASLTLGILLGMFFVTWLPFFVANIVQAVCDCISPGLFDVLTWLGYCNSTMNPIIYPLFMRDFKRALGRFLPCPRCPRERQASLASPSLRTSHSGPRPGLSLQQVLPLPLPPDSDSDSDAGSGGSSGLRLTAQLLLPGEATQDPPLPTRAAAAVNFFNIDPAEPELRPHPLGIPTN
Chain of 5-hydroxytryptamine receptor 7 (P34969 whole entry): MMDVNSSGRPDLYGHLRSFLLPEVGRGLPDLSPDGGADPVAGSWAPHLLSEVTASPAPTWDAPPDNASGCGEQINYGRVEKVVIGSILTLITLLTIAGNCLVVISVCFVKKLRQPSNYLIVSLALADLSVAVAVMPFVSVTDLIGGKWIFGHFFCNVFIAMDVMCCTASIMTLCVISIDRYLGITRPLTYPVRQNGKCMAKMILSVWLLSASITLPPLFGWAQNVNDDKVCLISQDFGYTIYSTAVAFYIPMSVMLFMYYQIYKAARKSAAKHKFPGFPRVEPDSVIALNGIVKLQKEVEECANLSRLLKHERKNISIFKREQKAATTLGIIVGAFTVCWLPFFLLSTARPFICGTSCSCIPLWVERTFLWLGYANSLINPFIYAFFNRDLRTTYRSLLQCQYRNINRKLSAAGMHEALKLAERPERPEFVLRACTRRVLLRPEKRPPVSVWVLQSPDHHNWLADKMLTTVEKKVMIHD
Chain of 5-hydroxytryptamine receptor 2A (P28223 whole entry): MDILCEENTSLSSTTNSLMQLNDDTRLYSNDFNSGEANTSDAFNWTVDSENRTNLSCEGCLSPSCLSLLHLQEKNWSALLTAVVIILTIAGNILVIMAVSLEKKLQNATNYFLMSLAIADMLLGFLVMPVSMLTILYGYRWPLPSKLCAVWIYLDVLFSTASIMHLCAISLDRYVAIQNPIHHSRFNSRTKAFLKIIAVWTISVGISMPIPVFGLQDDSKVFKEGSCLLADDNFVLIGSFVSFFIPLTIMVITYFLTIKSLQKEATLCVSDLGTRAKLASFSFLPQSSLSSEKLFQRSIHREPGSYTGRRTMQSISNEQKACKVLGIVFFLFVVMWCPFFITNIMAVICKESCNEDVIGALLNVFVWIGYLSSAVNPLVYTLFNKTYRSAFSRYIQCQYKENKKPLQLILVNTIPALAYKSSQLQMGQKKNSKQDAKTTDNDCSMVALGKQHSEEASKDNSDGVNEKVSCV
T5 sequence (P14416 whole entry): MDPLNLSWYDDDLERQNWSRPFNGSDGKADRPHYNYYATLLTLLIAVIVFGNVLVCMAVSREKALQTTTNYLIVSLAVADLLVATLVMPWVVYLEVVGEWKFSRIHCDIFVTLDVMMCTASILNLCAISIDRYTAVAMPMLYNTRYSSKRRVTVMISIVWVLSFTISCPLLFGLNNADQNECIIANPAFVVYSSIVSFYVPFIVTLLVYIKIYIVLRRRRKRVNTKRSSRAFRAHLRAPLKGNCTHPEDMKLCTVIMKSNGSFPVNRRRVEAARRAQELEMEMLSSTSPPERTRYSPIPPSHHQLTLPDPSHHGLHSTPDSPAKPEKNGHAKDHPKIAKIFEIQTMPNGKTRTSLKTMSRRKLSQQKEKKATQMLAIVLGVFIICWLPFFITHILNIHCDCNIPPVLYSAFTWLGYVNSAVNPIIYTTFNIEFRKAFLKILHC
T6 sequence (P35462 whole entry): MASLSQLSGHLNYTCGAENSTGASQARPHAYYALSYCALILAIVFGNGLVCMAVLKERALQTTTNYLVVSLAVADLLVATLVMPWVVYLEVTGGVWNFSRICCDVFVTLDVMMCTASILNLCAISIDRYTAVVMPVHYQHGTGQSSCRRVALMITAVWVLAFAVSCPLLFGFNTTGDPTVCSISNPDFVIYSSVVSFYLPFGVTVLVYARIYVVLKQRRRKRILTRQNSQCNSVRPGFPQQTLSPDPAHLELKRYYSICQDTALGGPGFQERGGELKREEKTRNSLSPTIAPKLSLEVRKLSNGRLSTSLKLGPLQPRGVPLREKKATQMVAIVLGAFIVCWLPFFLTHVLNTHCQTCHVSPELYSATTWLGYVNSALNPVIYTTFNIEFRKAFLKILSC

| SMILES | Ki [2] [µM] | IC50 [9] [µM] | also measured |
| --- | --- | --- | --- |
| Nc1ccc(S(=O)(=O)n2cc(C3CCNCC3)c3ccc(Cl)cc32)cc1 | 0.003 | 0.0085 | inhibition [1]: 15%; Ki [3]: 0.115 µM; Ki [4]: > 2 µM; inhibition [5]: 16%; inhibition (D(2) dopamine receptor [6]): 10%; inhibition [7]: 30%; inhibition [8]: 65%; inhibition (D(3) dopamine receptor [10]): 7%; inhibition [11]: 10%; inhibition [12]: 7% |
| CN1CC=C(c2cn(S(=O)(=O)c3ccccc3F)c3ccccc23)CC1 | 0.01 | 0.0039 |  |
| O=S(=O)(c1ccc(Cl)s1)n1cc(C2=CCNCC2)c2ccccc21 | 0.003 | 0.0141 |  |
| CN1CC=C(c2cn(S(=O)(=O)c3ccccc3Cl)c3ccccc23)CC1 | 0.01 | 0.0007 |  |
| O=S(=O)(c1ccc(Cl)cc1)n1cc(C2=CCNCC2)c2cc(F)ccc21 | 0.014 |  |  |
| Nc1ccc(S(=O)(=O)n2cc(C3=CCNCC3)c3cc(F)ccc32)cc1 | 0.001 | 0.0097 |  |
| Nc1ccc(S(=O)(=O)n2cc(C3=CCNCC3)c3ccc([N+](=O)[O-])cc32)cc1 | 0.031 |  |  |
| CN1CC=C(c2cn(S(=O)(=O)c3ccccc3)c3ccccc23)CC1 | 0.002 | 0.0138 |  |
| CN1CC=C(c2c[nH]c3ccccc23)CC1 | 0.098 |  |  |
| Nc1ccc(S(=O)(=O)n2cc(C3CCNCC3)c3cc(F)ccc32)cc1 | 0.002 | 0.0013 |  |
| O=S(=O)(c1ccc(F)cc1)n1cc(C2=CCNCC2)c2cc(F)ccc21 | 0.003 | 0.031 |  |
| O=S(=O)(c1ccccc1)n1cc(C2=CCNCC2)c2ccccc21 | 0.002 | 0.043 |  |
| CN1CC=C(c2cn(C(=O)Nc3ccccc3)c3ccccc23)CC1 | 0.118 |  |  |
| O=S(=O)(c1cccc2ccccc12)n1cc(C2=CCNCC2)c2cc(F)ccc21 | 0.004 | 0.009 |  |
| CN1CC=C(c2cn(S(=O)(=O)c3ccc(F)cc3)c3ccccc23)CC1 | 0.005 | 0.0427 |  |
| O=S(=O)(c1ccccc1)n1cc(C2=CCNCC2)c2cc(F)ccc21 | 0.0024 |  |  |
| O=S(=O)(c1nccc2sncc12)n1cc(C2=CCNCC2)c2ccccc21 | 0.005 | 0.169 |  |
| Nc1ccc(S(=O)(=O)n2cc(C3=CCNCC3)c3ccc(Cl)cc32)cc1 | 0.003 | 0.0112 |  |
| CN1CC=C(c2cn(S(=O)(=O)c3cccc(Cl)c3)c3ccccc23)CC1 | 0.001 | 0.0094 |  |

| SMILES | Ki [2] [µM] | IC50 [9] [µM] | also measured |
| --- | --- | --- | --- |
| CC(C)(C)OC(=O)N1CC=C(c2cn(S(=O)(=O)c3ccccc3)c3ccccc23)CC1 | 0.054 |  |  |
| Nc1ccc(S(=O)(=O)n2cc(C3=CCNCC3)c3cc(Br)ccc32)cc1 | 0.007 | 0.0337 |  |
| COc1ccc2c(c1)c(C1=CCNCC1)cn2S(=O)(=O)c1ccc(N)cc1 | 0.003 | 0.0004 | Ki [3]: 0.097 µM; Ki [4]: > 5 µM; inhibition [7]: 27%; inhibition [11]: 32% |
| O=S(=O)(c1ccccc1)n1cc(C2=CCN(Cc3ccccc3)CC2)c2ccccc21 | 0.246 |  |  |
| O=S(=O)(c1ccc2ccccc2c1)n1cc(C2=CCNCC2)c2ccccc21 | 0.027 |  |  |
| COc1ccc(S(=O)(=O)n2cc(C3=CCNCC3)c3ccccc32)cc1 | 0.018 |  |  |
| O=S(=O)(c1ccccc1F)n1cc(C2=CCNCC2)c2ccccc21 | 0.001 | 0.0027 | inhibition [1]: 57%; Ki [3]: 0.875 µM; Ki (D(2) dopamine receptor [13]): > 2 µM; Ki (D(4) dopamine receptor): > 5 µM; inhibition [5]: 53%; inhibition [7]: 11%; Ki (D(3) dopamine receptor [14]): 0.741 µM; inhibition [8]: 50%; inhibition [11]: 9% |
| COc1ccc2c(c1)c(C1=CCNCC1)cn2S(=O)(=O)c1ccc2ccccc2c1 | 0.019 | 0.0041 |  |
| O=S(=O)(c1ccccc1)n1cc(C2CCNCC2)c2cc(F)ccc21 | 0.02 |  |  |
| Nc1ccc(S(=O)(=O)n2cc(C3=CCNCC3)c3cc([N+](=O)[O-])ccc32)cc1 | 0.029 |  |  |
| CN1CC=C(c2cn(C(=O)c3ccccc3)c3ccccc23)CC1 | 0.099 |  |  |
| Nc1ccc(S(=O)(=O)n2cc(C3=CCNCC3)c3cc4c(cc32)OCO4)cc1 | 0.001 | 0.0017 |  |
| O=S(=O)(c1ccc(C(F)(F)F)cc1)n1cc(C2=CCNCC2)c2ccccc21 | 0.02 |  |  |
| Nc1ccc(S(=O)(=O)n2cc(C3=CCNCC3)c3cc(OCc4ccccc4)ccc32)cc1 | 0.05 |  |  |
| Nc1ccc(S(=O)(=O)n2cc(C3=CCNCC3)c3ccccc32)cc1 | 0.002 | 0.0008 | Ki [3]: 1.67 µM; Ki [4]: 1.55 µM; inhibition [7]: 33% |
| O=S(=O)(c1ccccc1)n1cc(C2CCNCC2)c2ccccc21 | 0.012 | 0.0195 |  |
| CC(=O)N1CC=C(c2cn(S(=O)(=O)c3ccccc3)c3ccccc23)CC1 |  |  | inhibition [15]: 64% |
| CCCCS(=O)(=O)n1cc(C2=CCNCC2)c2ccccc21 | 0.077 |  |  |
